In EPA's ToxValDB 9.5 (doi:10.2903/j.efsa.2012.2504):

Experiments:
Anas platyrhynchos = details: oral, mortality
Rattus norvegicus = details: for LD50: acute, mortality

Row | Structure (SMILES) | LC50 (Colinus virginianus; acute, oral, diet, mortality) [mg/kg-day] | LD50 (Colinus virginianus; acute, oral, mortality) [mg/kg] | NOEC (Colinus virginianus; reproduction developmental, M) [mg/kg-day] | LD50 (Anas platyrhynchos; acute, unspecified) [mg/kg] | LC50 (Anas platyrhynchos; short-term, feed) [mg/kg-day] | LD50 (Rattus norvegicus; oral) [mg/kg] | NOAEL (Rattus norvegicus; chronic, duration: 2 years, organ weight) [mg/kg-day] | NOAEL (Rattus norvegicus; chronic, no effects) [mg/kg-day] | NOAEL (Rattus norvegicus; subchronic, duration: 90 days, oral, histopathology: nonneoplastic) [mg/kg-day]
1 | COCCOC(=O)C(C#N)(C(=O)c1ccccc1C(F)(F)F)c1ccc(C(C)(C)C)cc1 (stereo not given) [Cyflumetofen] | > 1410 | > 2000 | ≥ 84.4 | > 2250 | > 2380 | > 2000 | 16.5 | 34.6 | 16.5
2 | O=C(O)c1ccccc1C(F)(F)F [2-(Trifluoromethyl)benzoic acid] |  |  |  |  |  | > 2000 |  |  | 
